Measurements as given in patent US8575156B2, “Cyclic inhibitors of 11β-hydroxysteroid dehydrogenase 1” (Vitae Pharmaceuticals, Inc., priority 2007, dated 2013).
Read-outs that look alike come from different tables or passages of the source. One block for each molecule: values may come before it.

Target: 11β-HSD1 (Homo sapiens, UniProt P28845)
Test: biochemical
Settings: for IC50: IC50 Range, Biological Test Example 1, microsomes from CHO cells overexpressing human 11β-HSD1; for inhibition at 0.1111 µM: read-out: Average % inhibition at 111.1 nM, Biological Test Example 1
[1] = read-out: Average % inhibition at 100 nM, Biological Test Example 1, 100 nM
[2] = read-out: Average % inhibition at 100 nM, Biological Test Example 1, 100 nM compound
[3] = read-out: Average % inhibition at 100 nM

Sequence of 11β-HSD1 (P28845 whole entry): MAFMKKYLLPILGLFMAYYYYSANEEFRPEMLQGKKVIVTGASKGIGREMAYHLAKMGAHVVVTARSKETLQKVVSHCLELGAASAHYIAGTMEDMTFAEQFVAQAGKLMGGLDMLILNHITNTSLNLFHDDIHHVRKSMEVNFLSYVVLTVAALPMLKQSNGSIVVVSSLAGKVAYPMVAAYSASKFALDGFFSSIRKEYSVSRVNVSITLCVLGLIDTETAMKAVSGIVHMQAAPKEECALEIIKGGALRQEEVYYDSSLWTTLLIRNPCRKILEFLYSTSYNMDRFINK

SMILES: Cc1ccccc1C1(C)CCN([C@@H](C)c2ccccc2)C(=O)O1 (stereo partly drawn) [EXAMPLE 86, 6-methyl-3-((S)-1-phenylethyl)-6-o-tolyl-1,3-oxazinan-2-one]
IC50: < 100 nM
inhibition at 0.1111 µM (111.1 nM compound): 85.7%

SMILES: CC[C@@H](c1ccc(-c2ccc(F)cc2F)cc1)N1CC[C@](CCCO)(c2ccccc2)OC1=O [EXAMPLE 253, (R)-3-((S)-1-(2′,4′-difluorobiphenyl-4-yl)propyl)-6-(3-hydroxypropyl)-6-phenyl-1,3-oxazinan-2-one]
IC50: < 100 nM
inhibition at 0.1 µM [2]: 93.3%

SMILES: COC(=O)NC(C)(C)C[C@]1(c2ccc(F)cc2)CCN([C@@H](C)c2ccc(Br)cc2)C(=O)O1 [EXAMPLE 606, methyl 1-((S)-3-((S)-1-(4-bromophenyl)ethyl)-6-(4-fluorophenyl)-2-oxo-1,3-oxazinan-6-yl)-2-methylpropan-2-ylcarbamate]
IC50: < 100 nM
inhibition at 0.1 µM [1]: 96.2%

SMILES: O=C1OC(CCO)(c2ccc(F)cc2)CCN1c1ccc(F)c(-c2ccc(F)cc2Cl)c1 (stereo not shown) [EXAMPLE 100, 3-(2′-chloro-4′,6-difluorobiphenyl-3-yl)-6-(4-fluorophenyl)-6-(2-hydroxyethyl)-1,3-oxazinan-2-one]
IC50: < 100 nM
inhibition at 0.1111 µM (111.1 nM compound): 93.7%

SMILES: NC(=O)c1ccc(N2CCC[C@H](N3CC[C@](CCCO)(c4ccc(F)cc4)OC3=O)C2)nc1 [EXAMPLE 584, 6-((S)-3-((R)-6-(4-fluorophenyl)-6-(3-hydroxypropyl)-2-oxo-1,3-oxazinan-3-yl)piperidin-1-yl)nicotinamide]
inhibition at 0.1111 µM (111.1 nM): 77%

SMILES: CC1(c2ccccc2)CCN(c2cccc(-c3ccc(CNS(C)(=O)=O)cc3)c2)C(=O)O1 (stereo not shown) [EXAMPLE 19, N-((3′-(6-methyl-2-oxo-6-phenyl-1,3-oxazinan-3-yl)biphenyl-4-yl)methyl)methanesulfonamide]
IC50: 100 to 1000 nM
inhibition at 0.1111 µM (111.1 nM compound): 24%

SMILES: CC[C@@H](c1ccc(Br)cc1)N1CC[C@](CCCO)(c2ccccc2)OC1=O [EXAMPLE 220, (R)-3-((S)-1-(4-bromophenyl)propyl)-6-(3-hydroxypropyl)-6-phenyl-1,3-oxazinan-2-one]
IC50: < 100 nM
inhibition at 0.1 µM [3]: 85.5%

SMILES: C[C@@H](c1ccc(C(F)(F)F)cc1)N1CC[C@](CCO)(c2ccc(F)cc2)OC1=O [EXAMPLE 387, (S)-6-(4-fluorophenyl)-6-(2-hydroxyethyl)-3-((S)-1-(4-(trifluoromethyl)phenyl)ethyl)-1,3-oxazinan-2-one]
IC50: < 100 nM
inhibition at 0.1 µM [1]: 95.8%

SMILES: C[C@@H](c1ccc(F)cc1)N1CC[C@](CCO)(c2ccc(F)cc2)OC1=O [EXAMPLE 406, (S)-6-(4-fluorophenyl)-3-((S)-1-(4-fluorophenyl)ethyl)-6-(2-hydroxyethyl)-1,3-oxazinan-2-one]
IC50: < 100 nM
inhibition at 0.1 µM [1]: 86.4%

SMILES: Cc1cc(-c2ccc([C@H](C)N3CC[C@](CC(C)(C)O)(c4ccc(F)cc4)OC3=O)cc2)cc(C)[n+]1[O-] [EXAMPLE 557, 4-(4-((S)-1-((S)-6-(4-fluorophenyl)-6-(2-hydroxy-2-methylpropyl)-2-oxo-1,3-oxazinan-3-yl)ethyl)phenyl)-2,6-dimethylpyridine 1-oxide]
inhibition at 0.1111 µM (111.1 nM): 89.7%

SMILES: C[C@@H](c1ccc(-c2ccccc2)cc1)N1CC[C@](CCCO)(c2ccccc2)OC1=O [EXAMPLE 490, (R)-3-((S)-1-(biphenyl-4-yl)ethyl)-6-(3-hydroxypropyl)-6-phenyl-1,3-oxazinan-2-one]
IC50: < 100 nM
inhibition at 0.1 µM [1]: 94.8%

SMILES: C=CCCC1(c2ccc(F)cc2)CCN([C@@H](C)c2ccc(OC(F)F)cc2)C(=O)O1 (single isomer, unassigned) [EXAMPLE 323 Isomer 1]
IC50: < 100 nM
inhibition at 0.1 µM [3]: 85.9%

SMILES: C[C@@H](c1ccc(Cl)cc1)N1CC[C@](CCCO)(c2ccc(F)cc2)OC1=O [EXAMPLE 202, (R)-3-((1S)-1-(4-chlorophenyl)ethyl)-6-(4-fluorophenyl)-6-(3-hydroxypropyl)-1,3-oxazinan-2-one]
IC50: < 100 nM
inhibition at 0.1 µM [2]: 95.9%

The next lines start with the values.

IC50: < 100 nM
inhibition at 0.1111 µM (111.1 nM compound): 77.7%
SMILES: CC1(c2ccccc2)CCN(c2cccc(-c3ccc(O)cc3)c2)C(=O)O1 (stereo not shown) [EXAMPLE 43, 3-(4′-hydroxybiphenyl-3-yl)-6-methyl-6-phenyl-1,3-oxazinan-2-one]

IC50: < 100 nM
inhibition at 0.1111 µM (111.1 nM compound): 83.2%
SMILES: C=CC1(c2ccc(F)cc2)CCN([C@@H](C)c2ccccc2)C(=O)O1 (single isomer, unassigned) [EXAMPLE 113 Isomer 1]

IC50: < 100 nM
inhibition at 0.1 µM [1]: 50.3%
SMILES: C[C@@H](c1ccc(Br)cc1)N1CC[C@](CCN2CCCC2)(c2ccc(F)cc2)OC1=O [EXAMPLE 376, (R)-3-((S)-1-(4-bromophenyl)ethyl)-6-(4-fluorophenyl)-6-(2-(pyrrolidin-1-yl)ethyl)-1,3-oxazinan-2-one]

IC50: < 100 nM
inhibition at 0.1111 µM (111.1 nM compound): 93.5%
SMILES: C=CCC1(c2cccs2)CCN([C@@H](C)c2ccc(-c3ccc(F)cc3)cc2)C(=O)O1 (single isomer, unassigned) [EXAMPLE 160 Isomer 1]

IC50: < 100 nM
inhibition at 0.1 µM [1]: 96.2%
SMILES: COc1ccc([C@H](C)N2CC[C@](CC(C)(C)O)(c3ccc(F)cc3)OC2=O)cc1 [EXAMPLE 425, (S)-6-(4-fluorophenyl)-6-(2-hydroxy-2-methylpropyl)-3-((S)-1-(4-methoxyphenyl)ethyl)-1,3-oxazinan-2-one]

IC50: < 100 nM
inhibition at 0.1111 µM (111.1 nM compound): 96.8%
SMILES: O=C1OC(CCO)(c2ccc(F)cc2)CCN1c1cccc(-c2ccc(F)cc2Cl)n1 (stereo not shown) [EXAMPLE 118, 3-(6-(2-chloro-4-fluorophenyl)pyridin-2-yl)-6-(4-fluorophenyl)-6-(2-hydroxyethyl)-1,3-oxazinan-2-one]

IC50: < 100 nM
inhibition at 0.1111 µM (111.1 nM compound): 73.4%
SMILES: CC(=O)NCCC1(c2ccccc2)CCN(c2cccc(-c3ccc(F)cc3F)c2)C(=O)O1 (stereo not shown) [EXAMPLE 98, N-(2-(3-(2′,4′-difluorobiphenyl-3-yl)-2-oxo-6-phenyl-1,3-oxazinan-6-yl)ethyl)acetamide]

IC50: < 100 nM
inhibition at 0.1 µM [1]: 60.7%
SMILES: C[C@@H](c1cccc(Br)c1)N1CC[C@](CCC(C)(C)O)(c2ccc(F)cc2)OC1=O [EXAMPLE 357, (R)-3-((S)-1-(3-bromophenyl)ethyl)-6-(4-fluorophenyl)-6-(3-hydroxy-3-methylbutyl)-1,3-oxazinan-2-one]

IC50: < 100 nM
inhibition at 0.1 µM [1]: 84.7%
SMILES: C[C@@H](c1ccc(Br)cc1)N1CC[C@](CC(C)(C)CNS(C)(=O)=O)(c2ccc(F)cc2)OC1=O [EXAMPLE 608, N-(3-((R)-3-((S)-1-(4-bromophenyl)ethyl)-6-(4-fluorophenyl)-2-oxo-1,3-oxazinan-6-yl)-2,2-dimethylpropyl)methanesulfonamide]

IC50: < 100 nM
inhibition at 0.1 µM [1]: 97.7%
SMILES: CC[C@@H](c1ccc(Br)cc1)N1CC[C@](CCC(N)=O)(c2ccccc2)OC1=O [EXAMPLE 398, 3-((R)-3-((S)-1-(4-bromophenyl)propyl)-2-oxo-6-phenyl-1,3-oxazinan-6-yl)propanamide]

IC50: < 100 nM
inhibition at 0.1 µM [2]: 96.6%
inhibition at 0.1111 µM (111.1 nM compound): 95%
SMILES: C=CC[C@]1(c2ccc(F)cc2)CCN([C@@H](C)c2ccc(Br)cc2)C(=O)O1 (single isomer, unassigned) [EXAMPLE 110 Isomer 2]

IC50: < 100 nM
inhibition at 0.1 µM [2]: 98.3%
inhibition at 0.1111 µM (111.1 nM compound): 94%
SMILES: C[C@@H](c1ccc(C2CC2)cc1)N1CC[C@](CCCO)(c2ccc(F)cc2)OC1=O [EXAMPLE 125, (R)-3-((S)-1-(4-cyclopropylphenyl)ethyl)-6-(4-fluorophenyl)-6-(3-hydroxypropyl)-1,3-oxazinan-2-one]

IC50: < 100 nM
inhibition at 0.1 µM [2]: 97.7%
SMILES: C[C@@H](c1ccccc1F)N1CC[C@](CCCO)(c2ccc(F)cc2)OC1=O [EXAMPLE 284, (R)-6-(4-fluorophenyl)-3-((S)-1-(2-fluorophenyl)ethyl)-6-(3-hydroxypropyl)-1,3-oxazinan-2-one]

IC50: < 100 nM
inhibition at 0.1 µM [2]: 90.7%
SMILES: CCC[C@]1(c2ccccc2)CCN([C@@H](C)c2ccc(-c3ccc(F)cc3F)cc2)C(=O)O1 [EXAMPLE 226, (R)-3-((S)-1-(2′,4′-difluorobiphenyl-4-yl)ethyl)-6-phenyl-6-propyl-1,3-oxazinan-2-one]

IC50: 100 to 1000 nM
inhibition at 0.1111 µM (111.1 nM compound): 35%
SMILES: C[C@@H](c1ccccc1)N1CCC(C)(c2ccc(CN3CCOCC3)cc2)OC1=O (stereo partly drawn) [EXAMPLE 92, 6-methyl-6-(4-(morpholinomethyl)phenyl)-3-((S)-1-phenylethyl)-1,3-oxazinan-2-one]

IC50: < 100 nM
inhibition at 0.1 µM [1]: 94.5%
SMILES: CC(C[C@]1(c2ccc(F)cc2)CCN([C@@H](C)c2ccc(Br)cc2)C(=O)O1)C(N)=O (single isomer, unassigned) [EXAMPLE 523 Isomer 1]

IC50: < 100 nM
inhibition at 0.1 µM [1]: 55.1%
SMILES: C[C@@H](c1ccc(F)cc1)N1CC[C@](CCC(C)(C)O)(c2ccccc2)OC1=O [EXAMPLE 416, (R)-3-((S)-1-(4-fluorophenyl)ethyl)-6-(3-hydroxy-3-methylbutyl)-6-phenyl-1,3-oxazinan-2-one]

IC50: < 100 nM
inhibition at 0.1 µM [1]: 44.8%
SMILES: Cc1ccc([C@H](C)N2CC[C@](CCCO)(c3ccc(F)cc3)OC2=O)cn1 [EXAMPLE 367, (R)-6-(4-fluorophenyl)-6-(3-hydroxypropyl)-3-((S)-1-(6-methylpyridin-3-yl)ethyl)-1,3-oxazinan-2-one]

IC50: < 100 nM
inhibition at 0.1111 µM (111.1 nM compound): 88.9%
SMILES: CC1(c2ccccc2)CCN(c2cccc(-c3c(Cl)cccc3Cl)c2)C(=O)O1 (stereo not shown) [EXAMPLE 22, 3-(2′,6′-dichlorobiphenyl-3-yl)-6-methyl-6-phenyl-1,3-oxazinan-2-one]

IC50: 100 to 1000 nM
inhibition at 0.1 µM [2]: 27%
inhibition at 0.1111 µM (111.1 nM compound): 26.6%
SMILES: C=CC[C@]1(c2ccc(F)cc2)CCN([C@@H](C)c2ccc(C(N)=O)cc2)C(=O)O1 [EXAMPLE 153, 4-((S)-1-((R)-6-allyl-6-(4-fluorophenyl)-2-oxo-1,3-oxazinan-3-yl)ethyl)benzamide]
